Literature values as cited in patent US20160235839A1, “CALCIUM FLUORIDE COMPOSITIONS” (priority 2013, published 2016).

Tested on: chicken red blood cells
Details: no cholesterol

## QS21
  Hemolytic activity of QS21 by itself: too hemolytic
